What was measured:
NSCLC cell line Calu-3 = assay: Orthotopic nude rat model for lung cancer, in vivo efficacy study; details: each with cisplatin IP 3 mg/kg, 1.5 mg/kg deposited INH vs 15 mg/kg IP, 8 weeks
Procedure: NSCLC cell line Calu-3 was instilled into the lungs of X-irradiated rats by an intratracheal route, targeting 1.5×10^7 cells per installation. For the first four weeks of the study, no treatment was administered, allowing growth of the tumor cells. Inhaled bevacizumab SDD was evaluated as a primary treatment as well as a maintenance therapy.
Cisplatin was administered by IP at 3 mg/kg. Powder was aerosolized using a rotating brush generator and delivered to the rats passively through nasal inhalation. […] Groups 1-4 were evaluated for primary efficacy after 8 weeks with lung weight as the end point. Groups 5-7 were evaluated for maintenance efficacy after 12 weeks with lung weight and survival as the end point.

[1] = solution prepared 18 hours before spray drying; cited from earlier work

## Bevacizumab [bevacizumab control]
NSCLC cell line Calu-3; listed as IP bevacizumab
  tumor burden, inhaled vs IP bevacizumab: indistinguishable
NSCLC cell line Calu-3; listed as bevacizumab delivered via IP injection
  tumor burden, inhaled vs IP bevacizumab: equal

## N.N.[Cl][Pt][Cl] [cisplatin]
[1]
  stability in aqueous solution: converts to transplatin
